Results: patent US7070942B2, “Method of inducing or enhancing chondrogenesis with extracellular matrix containing GDF-5” (DePuy Spine, Inc., priority 1998, dated 2006)

How the values were obtained:
[1] = tested on: GDF-5/type I collagen-induced chondrogenesis; assay: Inhibitors of intracellular signaling mediators on GDF-5/type I collagen-induced chondrogenesis; assay type: cell-based; settings: GDF-5 in the context of type I collagen
Excerpt: The molecular signaling mechanism by which GDF-5 induces chondrogenesis in the context of type I collagen was also examined using well-characterized inhibitors of intracellular signaling mediators. […] The known inhibitory effect of rapamycin on activation of p70S6 kinase indicate that GDF-5/type I collagen-induced chondrogenesis is mediated through p70S6 kinase activation.

FRC [2] = assay: Chondrogenesis by monochromatic staining of FRC cultured in the presence of type I collagen and various growth factors; assay type: cell-based, rat; settings: FRC in the presence of type I collagen
Procedure: The growth and differentiation factor-induced chondrogenesis is highly specific to GDF-5. It was shown that ECM-dependent chondrogenesis by GDF-5 is highly specific, by evaluating the ability of several mitogens and prototype differentiation factors under the following conditions. Chondrogenesis was assessed by monochromatic staining of FRC cultured in the presence of type I collagen and various growth factors.

[3] = tested on: fetal rat calvarial cells (FRC's); assay: Fetal rat calvarial cells plated on purified extracellular matrix proteins with GDF-5; chondrogenic nodule formation, alcian blue stain; assay type: cell-based; settings: GDF-5 100 ng/ml
Procedure: To show in vitro application, fetal rat calvarial cells (FRC's) were plated on various purified extracellular matrix proteins in the presence of recombinant human GDF-5 (100 ng/ml) for 3 weeks and scored for differentiation at the level of morphology, overall proteoglycan synthesis and deposition, and aggrecan and type II collagen expression. […] Chondrogenic nodules stained heavily with alcian blue and were positive for type II collagen and aggrecan-expression, as judged by immunohistochemical and transcriptional analyses. Cells in monolayer that surround the nodules were negative for the chondrogenic markers.
Plastic plates were first coated with different ECM proteins including type I and II collagen, type IV collagen, or fibronectin. […] Plastic culture 12 well (Costar, Cambridge, Mass.) were coated with 0.01% (w/v) of the indicated extracellular matrix proteins for 2 hours at 37° C. After removal of nonadsorbant protein, fetal rat calvarial cells were plated at a density of 2×10^5 cells/well in DMEM containing 10% FBS. Culture plates were then maintained for 21 days in culture media supplemented with or without GDF-5 (100 ng/ml). Plates were then stained overnight with alcian blue stain (0.5% w/v in 3% acetic acid), washed and photographed. For quantitation of alcian blue, cells were solubilized in 8M urea, and the amount of stain was quantitated using spectrophotometer (Molecular Devices, Sunnyvale, Calif.).

FRC cells [4] = assay: Semiquantitative PCR of aggrecan, type II collagen and type I collagen mRNA in FRC culture treated with GDF-5 in the presence of type I collagen; assay type: cell-based, rat; settings: FRC with GDF-5 in the presence of type I collagen
Excerpt: To examine correlation of changes in cellular morphology with the process of chondrogenesis, total cellular RNA and protein were isolated from FRC culture treated with GDF-5 in the presence of type I collagen. Total cellular RNA isolated from FRC cells was subjected to a semiquantitative PCR analysis using specific primers designed to amplify aggrecan, type II collagen or type I collagen. […] Under these conditions, type I collagen mRNA expression decreased by about 20%. The expression of aggrecan and type II collagen was confirmed using slot blot analysis.

FRC cells [5] = assay: Immunoblot of total cell lysates for type II collagen or aggrecan; assay type: cell-based, rat
Procedure: Total cell lysates (100 ug) were electrophoretically separated on a 8% or 5% SDSPAGE, transferred to immobilon-P and immunoblotted using antibody specific to type II collagen or aggrecan.

FRC [6] = assay: FRC seeded in porous type I collagen matrix, RT-PCR and histology with alcian or Toludine blue staining; assay type: cell-based, rat; settings: GDF-5 100 ng/ml, 3 weeks
Procedure: A porous matrix fabricated from type I collagen was seeded by, 1×10^5 cell per implant (2×3×3 mm). Cells embedded in matrices were then cultured for 3 weeks in culture supplemented with or without GDF-5 (100 ng/ml). Total RNA isolated from each implant were then subjected to RT-PCR. […] In parallel the implant material was subject to histological evaluation followed by alcian or Toludine blue staining. […] Under these conditions FRC cells were not able to proliferate and differentiate in the ECM in the absence of GDF-5 as measured by histological evaluation total DNA, RNA or protein content.

FRC cells [7] = assay: FRC in 3D collagen-based matrices of different porosity, with or without hyaluronic acid coating, semi-quantitative PCR; assay type: cell-based, rat; settings: only in matrices coated with hyaluronic acid with the highest porosity (about 300 micron); GDF-5 100 ng/ml, 3 weeks
Procedure: Each matrix composite was either coated with or without hyaluronic acid, a major component of cartilage. The implants were then seeded with 1×10^5 cells per implant and cultured for 3 weeks in the presence of GDF-5 (100 ng/ml). Total RNA extracted from each implant were then subjected to semi-quantitative PCR analysis. […] Together these findings indicate that GDP-5 chondrogenesis activity is fully and potently synergized by a matrix which contain 1) high pore size (about 100-300 micron); and 2) is composed of type I collagen which is coated with hyaluronic acid.

Sprague-Dawley rats = assay: Rat soft tissue implants, intramuscular, alkaline phosphatase activity and histology at 14 days; assay type: in vivo
Excerpt: In vivo activity of rhGDF-5 on collagen-based matrices.
In Vivo Assays, Rat Soft Tissue Implants: Matrix/growth factor combinations were implanted either subcutaneously in the thoracic region or intramuscularly in posterior tibial muscle pouches created by blunt dissection in 8 week old male Sprague-Dawley rats. At 14 days post-surgery, implants were harvested, weighed and processed for routine histology (fixed in 10% formalin, paraffin-embedded, sectioned to 6 μm, and hematoxylin and eosin stained). Alternatively, implants were extracted and assayed for alkaline phosphatase activity.

rat limb bud cells = settings: cited from earlier work
MC3T3-E1 cells = settings: well differentiated osteoblastic MC3T3-E1 cells; cited from earlier work
[8] = tested on: rat osteoprogenitor cells ROB-C26; settings: cited from earlier work
[9] = tested on: heterodimer of receptor for BMPs; settings: cited from earlier work

## O=C(O)CN(CCOCCOCCN(CC(=O)O)CC(=O)O)CC(=O)O [EGTA]
[1]
  inhibition of ligand-dependent chondrogenesis: not

## bFGF: growth factor
FRC [2]
  stimulation of chondrogenesis: failed to stimulate chondrogenesis

## TGFb
FRC [2]
  stimulation of chondrogenesis: completely failed to stimulate chondrogenesis

## IGF-II: growth factor
FRC [2]
  stimulation of chondrogenesis: failed to stimulate chondrogenesis

## CNc1ccc2oc(C[C@H]3O[C@@]4(CC[C@H]3C)O[C@H]([C@H](C)C(=O)c3ccc[nH]3)[C@H](C)C[C@H]4C)nc2c1C(=O)O [A23187]
[1]
  inhibition of ligand-dependent chondrogenesis: completely inhibited

## [Na+].[Na+].[Na+].[O]=[V]([O-])([O-])[O-] [Na3VO4]
[1]
  inhibition of ligand-dependent chondrogenesis: not

## GDF-5: growth and differentiation factor-5, a member of the bone morphogenetic protein (BMP) family that is involved in joint development
[3]; ECM-coated plastic plates (0.01% w/v), 21 days
  formation of chondrogenic cell aggregate binding alcian blue stain: stimulated the formation of chondrogenic cell aggregate
[3]; FRC cultured in the presence of vehicle alone, type IV collagen or fibronectin, 21 days
  formation of characteristic nodules: fails to stimulate the formation of characteristic nodules
[3]; FRC's plated on fibronectin, type IV collagen or tissue culture plastic, 3 weeks
  chondrogenesis: failed to stimulate chondrogenesis
[3]; FRC's plated on type I or type II collagen, 3 weeks
  chondrogenic nodule formation: stimulated chondrogenic nodule formation
FRC cells [4]
  decrease of type I collagen mRNA expression: about 20%
  increase of aggrecan mRNA expression: ~3
  increase of type II collagen mRNA expression: around 2
FRC cells [5]; FRC cells cultured in the absence of type I collagen
  expression of type II collagen or aggrecan: fails to stimulate expression
FRC cells [5]; FRC cultured with type I collagen
  steady state level of type II collagen and aggrecan: significant increase
FRC [6]; 1x10^5 cells per implant
  expression of aggrecan and type II collagen (RT-PCR): induced expression
FRC [6]; histology
  cellular morphology of FRC (alcian blue staining, cell shape): marked changes in cellular morphology
FRC cells [7]
  expression level of type II collagen and aggrecan: significant increase
Sprague-Dawley rats; CN/HA matrices loaded with 1, 5 and 50 μg, intramuscular in rats
  alkaline phosphatase activity and chondrogenesis: dose-depended increase
Sprague-Dawley rats; mineralized collagen combined with rhGDF-5, intramuscular in rats
  chondrogenesis and full terminal differentiation: very little evidence
Rat limb bud cells
  mesenchymal aggregation and chondrogenesis: stimulates
MC3T3-E1 cells
  alkaline phosphatase activity: fails to stimulate
[8]
  alkaline phosphatase activity: stimulates
[9]
  binding to heterodimer of receptor for BMPs: binds

## CCCC(=O)Nc1ncnc2c1ncn2[C@@H]1O[C@@H]2COP(=O)(O)O[C@H]2[C@H]1OC(=O)CCC [dibutyryl-cAMP]
[1]
  inhibition of ligand-dependent chondrogenesis: not

## IGF-I: growth factor
FRC [2]
  stimulation of chondrogenesis: failed to stimulate chondrogenesis
